Values of other authors as cited in patent publication US20120129178A1, “GENOMIC POLYMORPHISM FOR PREDICTING THERAPEUTIC RESPONSE” (University of Southern California, priority 1999, published 2012).
Like-named read-outs stand apart in the source and are kept apart here.

Key:
[1] = test system: patients with gastric cancer; conditions: gastric cancer patients treated with 5-Fu
[2] = test system: patients with disseminated colon cancer; conditions: 46 patients with disseminated colon cancer; TS mRNA levels higher than 4.1

For `O=c1[nH]cc(F)c(=O)[nH]1` [5-FU, 5-Fluorouracil], the median survival ([1]; TS mRNA levels >4.6) is given as 6 months, the median survival ([1]; TS mRNA levels of 54.6 (so in the source)) is given as ≥ 43 months and the “response to 5-FU based treatment” value [2] is given as “No patient with TS mRNA levels higher than 4.1 responded to treatment”.
